From patent publication US7691874B2, “Neuroprotective properties of dextrorotatory morphinans” (priority 2004, dated 2010)
Marks after values point to notes of the source that are not given here.

How the values were obtained:
CB1 receptor = CB1 receptor (Rattus norvegicus, UniProt P20272); type: biochemical
cocaine-treated mice [1] = experiment: Cocaine-induced Fos-related antigen-immunoreactivity (FRA-IR) in the striatum; conditions: cocaine 5 mg/kg; morphinan 20 mg/kg i.p.
cocaine-treated mice [2] = experiment: Cocaine-induced hyperlocomotion; type: in vivo; conditions: for effect on locomotor activity induced by low dose of cocaine: cocaine 5 mg/kg i.p. x 7 days, morphinan 15 or 30 mg/kg (DF 20 mg/kg) i.p.; for effect on hyperactivity induced by high dose of cocaine: cocaine 20 mg/kg i.p. x 7 days, morphinan 15 or 30 mg/kg i.p. 30 min before
Experimental: FIGS. 34A-34B show effect of morphinans on the cocaine-induced hyperactivity in the mice. Morphinans (15 and 30 mg/kg, i.p.) were administered 30 minutes prior to cocaine (5 and 20 mg/kg, i.p.). Central activity means relatively non-specific locomotor activity in the center of the box. Marginal activity means circling behaviors. All treatments were performed for 7 days.
FIGS. 35A-35D show effect of dimemorfan (DF) on cocaine-induced hyperactivity in the mice. DF (20 mg/kg, i.p.) was administered 30 minutes prior to cocaine (5 and 20 mg/kg, i.p.). All treatments were performed for 7 days.

C57 BL/6 mice [3] = experiment: Conditioned place preference (psychological dependence) following repeated administration of morphinans or PCP; type: in vivo; conditions: 20 or 40 mg/kg i.p. (PCP 2.5 or 5 mg/kg); vs saline
Experimental: On day 14, the guillotine doors were raised. […] Data were analyzed between 0900 and 1700 hr.

MPTP-treated mice [4] = experiment: Hypokinesia (reduction in locomotor activity) induced by MPTP; type: in vivo; conditions: 12 or 24 mg/kg i.p. 30 min before MPTP (20 mg/kg/day x 7), last three days
MA-treated mice [5] = experiment: MA-induced behavioural sensitization; conditions: morphinan 20 mg/kg i.p., last 3 days of wash-out (Ex. 3.12)
Experimental: Morphinans (20 mg/kg, i.p.) were administered last 3 days of wash-out period.

MA-treated mice [6] = experiment: Striatal dopamine and metabolites in MA-treated mice; type: in vivo; conditions: for Concentration DA in the striatum: 3 days after final MA
Source text: Mice were sacrificed at 3 days after final MA injection.

LPS-treated mice [7] = experiment: Hypokinesia induced by intrastriatal LPS; conditions: 12 or 24 mg/kg, twice before bilateral intrastriatal LPS
Experimental: Male mice were anesthetized with chloral hydrate (200 mg/kg, i.p.) and positioned in a small-animal stereotaxic apparatus. […] LPS (2 μg in a volume of 2 μl of PBS) was injected into both sides of the striatum over a period of 2 min, and the injection needle was kept in place for 2 min after the injection. Control animals received striatal injection with PBS.
Ten min after the last treatment with each drug, locomotor activity was measured for 30 min. After measuring the locomotor activity (i.e. 40 min after the last drug injection), the ‘absolute turn angular’ was analyzed in a 3-min monitoring period using an automated video-tracking system (Noldus Information Technology, Wagenin, The Netherlands) to examine locomotor patterns. […] Eight test boxes (40×40×30 cm high) were operated simultaneously by an IBM computer. Animals were studied individually during locomotion in each test box, where they were adapted for 10 min before starting the experiment. […] The distance traveled in cm by the animals in horizontal locomotor activity was analyzed (13, 25, 27). Data were collected and analyzed between 0900 and 1700 hr.

MA-treated mice [8] = experiment: Methamphetamine (MA)-induced hyperthermia; type: in vivo; conditions: 24 mg/kg; MA 7.5 mg/kg i.p. x 4 at 2-h intervals
Experimental: Rectal temperature was recorded at 40 min after each MA treatment. […] Mice were sacrificed at 3 days after final MA injection.
FIGS. 10A-10B show effect of morphinans on the methamphetamine (MA)-induced hyperthermia. Mice received i.p. injections of MA (four injections of 7.5 mg/kg each) at 2-h intervals under the ambient temperature of 22.0±0.5° C. Temperatures were recorded at 40 min after each MA treatment (Arrow=MA injection).

MA-treated mice [9] = experiment: MA-induced FRA-IR in the striatum; conditions: morphinan 20 mg/kg i.p.; MA 1 mg/kg i.p./day x 7
Experimental: Therefore, brains were removed and used for immunocytochemical analysis at 18 h after the final cocaine/MA treatment. The coronal sections containing striatum were processed for FRA immunocytochemistry. […] The FRA antibody was used at 1:2,000 as the optimal dilution. The FRA-IR in the striatum was calculated using image analysis systems with a polaroid digital microscopic camera (Optimas version 6.2).

[10] = tested on: NMDA receptor associated PCP sites; conditions: cited from earlier work
MA-treated mice [11] = experiment: MA-induced hyperlocomotion; type: in vivo; conditions: morphinan 20 mg/kg i.p. 30 min before MA 1 mg/kg i.p./day x 7
Experimental: FIGS. 39A-39D show effect of morphinans on the MA-induced hyperactivity in the mice. Each morphinan (20 mg/kg, i.p.) was administered 30 minutes prior to MA (1 mg/kg, i.p.). All treatments were performed for 7 days.

MA-treated mice [12] = experiment: Hypokinesia induced by MA; type: in vivo; conditions: 12 and 24 mg/kg; 3 days after final MA
MPTP-treated mice [13] = experiment: Striatal dopamine and metabolites (HPLC-EC) in MPTP-treated mice; conditions: for Concentration DA in the striatum: mean ± S.E.M., 8 animals
σ1 receptors = σ1 receptors (Homo sapiens, UniProt Q99720); conditions: cited from earlier work
[14] = tested on: kainate or maximal electric shock; conditions: kainate (24) or maximal electric shock (27); cited from earlier work
LPS-treated mice [15] = experiment: Striatal dopamine and metabolites in LPS-treated mice; type: in vivo; conditions: for Concentration DA in the striatum: 3 weeks after LPS
Source text: Control animals received striatal injection with PBS.
Mice were sacrificed at 3 weeks after LPS treatment.

C57 BL/6 mice [16] = experiment: Locomotor activity and locomotor pattern following repeated administration of morphinans or PCP; type: in vivo; conditions: for locomotor pattern (tracings): 40 mg/kg i.p. (PCP 5 mg/kg), FIG. 3; for marginal activity (circling behaviour; absolute turn angular): 20 or 40 mg/kg i.p./day x 7 (PCP 2.5 or 5 mg/kg), 3-min period; for marginal activity (circling behaviour; absolute turn angular) / locomotor activity (total distance moved): vs saline; for locomotor activity (total distance moved): 20 or 40 mg/kg i.p./day x 7 days, 30 min after final treatment
MA-treated mice [17] = experiment: Nigral TH-IR in MA-treated mice; conditions: 24 mg/kg i.p.

σ1 receptors, sequence (Q99720 whole entry): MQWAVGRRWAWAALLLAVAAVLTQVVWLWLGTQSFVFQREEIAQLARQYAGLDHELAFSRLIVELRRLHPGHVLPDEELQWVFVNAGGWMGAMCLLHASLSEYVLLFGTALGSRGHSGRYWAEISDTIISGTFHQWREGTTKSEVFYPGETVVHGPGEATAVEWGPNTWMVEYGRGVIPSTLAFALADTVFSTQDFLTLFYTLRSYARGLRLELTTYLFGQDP
CB1 receptor, sequence (P20272 whole entry): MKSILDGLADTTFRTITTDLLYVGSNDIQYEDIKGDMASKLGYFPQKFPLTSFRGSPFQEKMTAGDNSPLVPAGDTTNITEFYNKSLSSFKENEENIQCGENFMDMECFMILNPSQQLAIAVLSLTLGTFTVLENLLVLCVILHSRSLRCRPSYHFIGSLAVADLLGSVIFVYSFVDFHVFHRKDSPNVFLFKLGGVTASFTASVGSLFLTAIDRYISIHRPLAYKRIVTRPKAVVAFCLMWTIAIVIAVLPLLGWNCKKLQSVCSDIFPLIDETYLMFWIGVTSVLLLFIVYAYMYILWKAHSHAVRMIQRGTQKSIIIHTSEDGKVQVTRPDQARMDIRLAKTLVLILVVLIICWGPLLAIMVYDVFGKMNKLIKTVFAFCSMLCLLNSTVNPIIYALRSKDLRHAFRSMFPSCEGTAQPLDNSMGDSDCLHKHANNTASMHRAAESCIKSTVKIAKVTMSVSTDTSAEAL

For `CCCCCCC(C)(C)c1ccc([C@@H]2C[C@H](O)CC[C@H]2CCCO)c(O)c1` [CP55,940, [1α, 2β-(R)-5α]-(−)-5-(1,1-dimethyl)-2-[5-hydroxy-2-(3-hydroxypropyl)cyclohexyl-phenol], reference compound], the “stimulation of GTP γS binding” value (CB1 receptor) was “about 120%”.

With `COc1ccc2c(c1)[C@@]13CCCC[C@H]1[C@@H](C2)NCC3` [MM, 3-methoxymorphinan, reference compound] the “effect on cocaine-induced FRA-IR in the striatum” value (cocaine-treated mice [1]) was “Neither DM nor MM affects this induction of FRA-IR”, the “effect on locomotor activity induced by low dose of cocaine” value (cocaine-treated mice [2]) was “did not influence locomotor activity mediated by a low dose of cocaine” and the “effect on hyperactivity induced by high dose of cocaine” value (cocaine-treated mice [2]) was “attenuated”.

In the case of `Cc1ccc2c(c1)[C@@]13CCCC[C@H]1[C@@H](C2)N(C)CC3` [DF, 3-methyl-17-methyl-morphinan], the “effect on cocaine-induced FRA-IR in the striatum” value (cocaine-treated mice [1]) is reported as “apparently attenuated”, the “conditioned place preference (CPP)” value (C57 BL/6 mice [3]) is reported as “almost no CPP effects” and the “effect on MPTP-induced reduction in locomotor activity” value (MPTP-treated mice [4]) is reported as “neither AM nor DF affected significantly the locomotor hypoactivity”. For the same compound, the “effect on MA-induced behavioural sensitization” value (MA-treated mice [5]) was “significantly reduced”, the “effect on MA-induced reductions in striatal DA, DOPAC and HVA” value (MA-treated mice [6]; 24 mg/kg pretreatment) was “significantly protected” and the “Concentration DOPAC in the striatum” value (MA-treated mice [6]; morphinan 12 (mg/kg) + MA) was 79 ± 11 ng/100 mg wet tissue. For the same compound, the “Concentration HVA in the striatum” value (MA-treated mice [6]; morphinan 12 (mg/kg) + MA) was 79 ± 7 ng/100 mg wet tissue, the “Concentration DA in the striatum” value (MA-treated mice [6]; morphinan 12 (mg/kg) + MA, mean ± S.E.M., 8 animals) was 603 ± 65 ng/100 mg wet tissue and the “Concentration DOPAC in the striatum” value (MA-treated mice [6]; morphinan 24 (mg/kg) + MA) was 94 ± 9^b ng/100 mg wet tissue. For the same compound, the “Concentration HVA in the striatum” value (MA-treated mice [6]; morphinan 24 (mg/kg) + MA) was 92 ± 10^b ng/100 mg wet tissue, the “Concentration DA in the striatum” value (MA-treated mice [6]; morphinan 24 (mg/kg) + MA) was 762 ± 81^b ng/100 mg wet tissue and the “effect on LPS-induced decrease in locomotor activity” value (LPS-treated mice [7]) was “neither AM nor DF were effective in attenuating locomotor hypoactivity”. For the same compound, the “effect on MA-induced hyperthermia (rectal temperature)” value (MA-treated mice [8]) was “attenuated by all morphinans used in this study”, the “effect on MA-induced FRA-IR in the striatum” value (MA-treated mice [9]) was “apparently attenuated” and the “affinity for NMDA receptor associated PCP sites” value [10] was “very low affinities”. For the same compound, the “effect on MA-induced hyperlocomotion” value (MA-treated mice [11]) was “consistently effective in attenuating hyperlocomotion induced by MA”, the “effect on MA-induced reduction in locomotor activity” value (MA-treated mice [12]) was “significantly prevented MA-induced reduction in locomotor activity” and the “effect on MPTP-induced reductions in striatal DA, DOPAC and HVA” value (MPTP-treated mice [13]; 24 mg/kg pretreatment) was “did not alter reductions in DA, DOPAC and HVA”. The “Concentration DOPAC in the striatum” value (MPTP-treated mice [13]; morphinan 12 (mg/kg) + MPTP) was 44 ± 6 ng/100 mg wet tissue, the “Concentration HVA in the striatum” value (MPTP-treated mice [13]; morphinan 12 (mg/kg) + MPTP) was 62 ± 7 ng/100 mg wet tissue and the “Concentration DA in the striatum” value (MPTP-treated mice [13]; morphinan 12 (mg/kg) + MPTP) was 403 ± 55 ng/100 mg wet tissue. For the same compound, the “Concentration DOPAC in the striatum” value (MPTP-treated mice [13]; morphinan 24 (mg/kg) + MPTP) was 52 ± 7 ng/100 mg wet tissue, the “Concentration HVA in the striatum” value (MPTP-treated mice [13]; morphinan 24 (mg/kg) + MPTP) was 68 ± 6 ng/100 mg wet tissue and the “Concentration DA in the striatum” value (MPTP-treated mice [13]; morphinan 24 (mg/kg) + MPTP) was 397 ± 55 ng/100 mg wet tissue. For the same compound, the “affinity for σ1 receptors” value (σ1 receptors) was “high affinity ligands”, the anticonvulsant effect [14] was “exhibited anticonvulsant effects” and the “effect on LPS-induced reductions in striatal DA, DOPAC and HVA” value (LPS-treated mice [15]; 24 mg/kg pretreatment) was “did not alter LPS-induced reductions in DA, DOPAC and HVA levels”. The “Concentration DOPAC in the striatum” value (LPS-treated mice [15]; morphinan 12 (mg/kg) + LPS) was 54 ± 7 ng/100 mg wet tissue, the “Concentration HVA in the striatum” value (LPS-treated mice [15]; morphinan 12 (mg/kg) + LPS) was 62 ± 8 ng/100 mg wet tissue and the “Concentration DA in the striatum” value (LPS-treated mice [15]; morphinan 12 (mg/kg) + LPS, mean ± S.E.M., 8 animals) was 635 ± 65 ng/100 mg wet tissue. The “Concentration DOPAC in the striatum” value (LPS-treated mice [15]; morphinan 24 (mg/kg) + LPS) was 59 ± 8 ng/100 mg wet tissue, the “Concentration HVA in the striatum” value (LPS-treated mice [15]; morphinan 24 (mg/kg) + LPS) was 63 ± 7 ng/100 mg wet tissue and the “Concentration DA in the striatum” value (LPS-treated mice [15]; morphinan 24 (mg/kg) + LPS) was 459 ± 58 ng/100 mg wet tissue. For the same compound, the “locomotor pattern (tracings)” value (C57 BL/6 mice [16]) was “did not produce significant marginal activity”, the “marginal activity (circling behaviour; absolute turn angular)” value (from here on “marginal activity”) (C57 BL/6 mice [16]) was “did not significantly affect marginal activity” and the “locomotor activity (total distance moved)” value (C57 BL/6 mice [16]) was “comparable to that with saline”. The “effect on locomotor activity induced by low dose of cocaine” value (cocaine-treated mice [2]) was “consistently attenuated locomotor activity induced by a low dose of cocaine”, the “effect on hyperactivity induced by high dose of cocaine” value (cocaine-treated mice [2]) was “not uniform” and the “effect on MA-induced decrease in nigral TH-positive cells” value (MA-treated mice [17]) was “significantly attenuated the decrease in TH-positive cells”.

In the case of `c1ccc(C2(N3CCCCC3)CCCCC2)cc1` [PCP, phencyclidine, reference compound], the “conditioned place preference (CPP)” value (C57 BL/6 mice [3]) is reported as “most significant CPP”, the “locomotor pattern (tracings)” value (C57 BL/6 mice [16]) is reported as “produced marginal activity” and the “marginal activity” value (C57 BL/6 mice [16]) is reported as “much stronger stereotypies”.

For `CN1CC[C@]23CCCC[C@H]2[C@H]1Cc1ccc(O)cc13` [DX, 3-hydroxy-17-methylmorphinan, reference compound], the “conditioned place preference (CPP)” value (C57 BL/6 mice [3]) is given as “produced CPP in a dose-dependent manner”, the “affinity for σ1 receptors” value (σ1 receptors) is given as “high affinity ligands” and the “locomotor pattern (tracings)” value (C57 BL/6 mice [16]) is given as “produced marginal activity”. The “marginal activity” value (C57 BL/6 mice [16]) was “significant increase in marginal activity” and the “locomotor activity (total distance moved)” value (C57 BL/6 mice [16]) was “significantly increased locomotor activity”.
